The values below are quoted from earlier work in patent US12128086B2, “Formulations and methods of use for alpha connexin c-terminal (ACT) peptides” (XEQUEL BIO, INC., priority 2012, dated 2024).

Where two headings read alike, the source gives them in different places.

Data set [1] relates to full thickness excisional wounds. The following applies: adult mice; 100 μM of ACT1 peptide; 5 mm full thickness excisional wounds.
The test system is the same in data set [2]. The following applies: pigs; 100 μM of ACT1 peptide; 5 mm full thickness excisional wounds.

Regarding “Biotin-Ahx-Arg-Gln-Pro-Lys-lle-Trp-Phe-Pro-Asn-Arg-Arg-Lys-Pro-Trp-Lys-Lys-Arg-Pro-Arg-Pro-Asp-Asp-Leu-Glu-lle-OH [Peptide 328967]”, the “Wound healing versus vehicle control (in words)” value is “closed faster, appeared less swollen and inflamed, and healed with a smoother and less discolored appearance” in data set [1]; “closed faster, appeared less swollen and inflamed, and healed with a smoother and less discolored appearance” in data set [2].
